This note sets out measurements from patent US12378249B2, “Isoquinoline compounds and uses thereof” (Genentech, Inc., priority 2018, dated 2025).

As usually defined, the Ki is the dissociation constant of the complex between target and ligand, obtained from inhibition or displacement.

Assay [1] has as its target HPK1 (Homo sapiens (Human), UniProt Q92918, S171E/T165E). The experiment in a line: HPK1-FL HTRF Enzymatic Assay (HTRF). Format: biochemical. To be noted: HPK full length T165E S171E 0.125 nM, ATP 1 mM, Biotin-SLP76 100 nM, read-out: HPK1 Ki (nM), H = HTRF. In short, it runs like this:
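Ki derived from % activity calculated from the TR-FRET 665/620 ratio, using Eu-anti-pSLP76 and SA-XL665 detection added for 60 min. Reaction: compound preincubated 30 min with full-length double-mutant HPK1, then 60 min with Biotin-SLP-76 and 1 mM ATP, pH 7.5 HEPES buffer.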

Assay [2] concerns primary human pan T cells. As to the kind of experiment: Human T-cell IL2 Induction Assay. The format is cell-based. The note with it: assayed concentration 0.10 μM; anti-CD3/anti-CD28 stimulated, 4 hours. How it is done:
Example B3: Human T-cell IL2 Induction Assay
Anti-CD3 and anti-CD28 activates TCR signaling in primary human pan T cells leading to IL-2 promoter induction. Secreted IL-2 in cell culture supernatant is detected by electrochemiluminescence using a capture antibody against IL-2 and an anti-IL-2 antibody labeled with SULFO-tag.
See www.mesoscale.com for additional electrochemiluminescence technology information.
Incubate primary human pan T cells with varying concentrations of test compounds for 30 minutes in a humidified incubator at 37° C. and 5% CO2. Transfer cells to a plate pre-coated with a fixed concentration of anti-human CD3 (determined separately for each donor lot) and add soluble anti-human CD28 (final concentration=1 μg/ml). Stimulate cells in a humidified incubator at 37° C. and 5% CO2 for 4 hours. Transfer 25 μl of supernatant to a MSD single spot plate pre-coated with an anti-human IL-2 antibody. Incubate MSD plate overnight at 4° C. with gentle shaking. Wash MSD plate 4× with wash buffer. Add SULFO-tagged detection antibody at a 1:50 dilution and incubate at room temperature shaking for 2 hours. Wash MSD plate 4× with wash buffer and add 150 μl 2×MSD read buffer. Read on an MSD instrument. Normalize data to stimulated/untreated controls to calculate % activity at each concentration of compound.
• Frozen Primary Human Pan-T Cells (StemCell Technologies #70024) • anti-human CD3 (OKT3 clone) (eBioscience #16-0037-81) • anti-human CD28 (CD28.2 clone) (BD #555725) • 96-well Human IL-2 tissue culture kit (MSD #K151AHB-4) Instrumentation: • Biomek FX for liquid handling (Beckman Coulter) • MSD SECTOR S 600 (Meso Scale Discovery)
Exemplary compounds of Formula (I) were tested in the human T-cell IL-2 induction assays. The % increase measured for IL-2 in cells treated by the test compounds relative to untreated cells are provided in Table B2 for certain compounds.

HPK1, sequence (Q92918 whole entry T165E/S171E): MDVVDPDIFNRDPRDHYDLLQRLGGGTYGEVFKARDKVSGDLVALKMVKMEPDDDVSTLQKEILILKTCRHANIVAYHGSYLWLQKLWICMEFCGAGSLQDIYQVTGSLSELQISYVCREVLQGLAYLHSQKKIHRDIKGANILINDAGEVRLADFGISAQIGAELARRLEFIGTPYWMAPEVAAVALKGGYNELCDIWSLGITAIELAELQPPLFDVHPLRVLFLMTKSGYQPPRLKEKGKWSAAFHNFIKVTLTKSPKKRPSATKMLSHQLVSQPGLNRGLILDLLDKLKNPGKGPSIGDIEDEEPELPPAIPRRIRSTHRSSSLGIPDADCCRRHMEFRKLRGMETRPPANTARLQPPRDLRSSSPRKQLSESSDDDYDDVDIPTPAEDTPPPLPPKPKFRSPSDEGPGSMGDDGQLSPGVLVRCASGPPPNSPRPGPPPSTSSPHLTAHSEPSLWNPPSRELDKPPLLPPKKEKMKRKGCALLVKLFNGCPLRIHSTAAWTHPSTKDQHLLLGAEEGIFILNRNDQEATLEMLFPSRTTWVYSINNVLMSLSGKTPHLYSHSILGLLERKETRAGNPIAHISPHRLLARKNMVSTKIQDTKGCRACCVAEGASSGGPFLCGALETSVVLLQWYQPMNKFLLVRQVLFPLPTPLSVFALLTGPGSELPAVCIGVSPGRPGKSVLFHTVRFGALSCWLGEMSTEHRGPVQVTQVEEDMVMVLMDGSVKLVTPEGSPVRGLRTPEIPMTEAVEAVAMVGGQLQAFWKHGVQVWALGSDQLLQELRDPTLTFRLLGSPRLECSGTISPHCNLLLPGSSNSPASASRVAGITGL

On to `Cc1c(N)cncc1-c1cc2cc(Nc3cc4n(n3)CC(=O)N(C(C)C)CC4)ncc2cc1Cl` [Compound 140, 2-((6-(5-amino-4-methylpyridin-3-yl)-7-chloroisoquinolin-3-yl)amino)-6-isopropyl-5,6-dihydro-4H-pyrazolo[1,5-d][1,4]diazepin-7(8H)-one], for which the Ki in assay [1] is 0.086 nM. Moreover, the “% IL-2 increase relative to untreated cells” value in assay [2] stood at 304%.
